Measurements published in PubChem BioAssay (NCI).
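Grown in 96-well plates, cells were treated for 48 hours with each compound at five concentrations. Insufficient inhibition: endpoint recorded as highest concentration tested. GI50: concentration for 50% inhibition of growth. TGI: concentration producing complete growth inhibition.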

Columns and labels:
Assay in all cases: NCI tumour cell line growth inhibition, 48 h
BT-549 breast = tested on: BT-549 breast
DMS 114 small cell lung = tested on: DMS 114 small cell lung
M19-MEL melanoma = tested on: M19-MEL melanoma
P388 leukemia = tested on: P388 leukemia
P388/ADR leukemia = tested on: P388/ADR leukemia
PC-3 prostate = tested on: PC-3 prostate
SNB-78 CNS = tested on: SNB-78 CNS
XF 498 CNS = tested on: XF 498 CNS
LXFL 529 NSCLC = tested on: LXFL 529 NSCLC
RXF-631 renal = tested on: RXF-631 renal

SMILES | GI50 (BT-549 breast) [µM] | TGI (BT-549 breast) [µM] | TGI (DMS 114 small cell lung) [µM] | TGI (M19-MEL melanoma) [µM] | TGI (P388 leukemia) [µM] | TGI (P388/ADR leukemia) [µM] | GI50 (PC-3 prostate) [µM] | TGI (PC-3 prostate) [µM] | TGI (SNB-78 CNS) [µM] | TGI (XF 498 CNS) [µM] | GI50 (DMS 114 small cell lung) [µM] | GI50 (LXFL 529 NSCLC) [µM] | TGI (LXFL 529 NSCLC) [µM] | GI50 (M19-MEL melanoma) [µM] | GI50 (RXF-631 renal) [µM] | TGI (RXF-631 renal) [µM] | GI50 (SNB-78 CNS) [µM]
Nc1ncnc2c(C3OC(CO)C(O)C3O)[nH]nc12 (centres undefined) | 0.113 | 3.38 | 1.36 | 80.5 | 51.7 | 123 | 0.0474 | 8.97 | 40.4 | 1.34 |  |  |  |  |  |  | 
CCC[CH2][Ge]([CH2]CCC)([CH2]CCC)[O]C(=O)C(O)c1ccccc1 (centres undefined) |  |  | 7.19 | 22.3 |  |  |  |  | 38.8 | 4.92 | 0.284 | 1.29 | 21.4 | 8.65 | 5.7 | 31.9 | 3.04
CC(=O)OCC1OC(n2c(=O)n(-c3ccccc3)c(=O)c3cc(Br)cc(Br)c32)C(OC(C)=O)C(OC(C)=O)C1OC(C)=O (centres undefined) |  |  | > 100 | > 100 |  |  |  |  | > 100 | > 100 |  |  | > 100 |  |  | > 100 | 
Cc1ccccc1-c1c(N)nc(N)nc1C(=O)Nc1nccs1 |  |  | > 100 | > 100 |  |  |  |  | > 100 | > 100 |  |  | > 100 |  |  | > 100 | 
CCC1(C(=O)OC)CCc2c(OC)ccc(OC)c2C1=O (centres undefined) |  |  | > 100 | > 100 |  |  |  |  | > 100 | > 100 |  |  | > 100 |  |  | > 100 | 
